Measured values: patent US20200277268A1, “PENTAFLUOROPHENYL SULFONAMIDE COMPOUNDS, COMPOSITIONS AND USES THEREOF” (DALRIADA THERAPEUTICS INC., priority 2017, published 2020)
“Also recorded” adds a separate entry of the source.

Key:
PL-21 = assay: Cell viability, AML PL-21; type: cell-based; conditions: Table 4
Method: (§1) The anti-cancer efficacy of exemplary compounds of the application were assessed in vitro against different cancer cell lines. Cell viability was examined following treatment at various concentrations of inhibitor (0.097656-50 μM) using a CellTiter-Blue® cell viability assay. 1×10^4 cells/well were plated in 96-well assay plates in culture medium. All cells were grown in DMEM, IMDM and RPMI-1640 supplemented with 10% fetal bovine serum (FBS). In some instances, FBS was removed for periods ranging from 16-24 hours, and re-introduced with test compound addition. After 24 hrs, test compounds and vehicle controls were added to appropriate wells such that the final volume was 100 μl in each well. The cells were cultured for the desired test exposure period (72 hours) at 37° C. and 5% CO2. The assay plates were removed from […] incubator and 20 μl/well of CellTiter-Blue® Reagent was added. The plates were incubated using standard cell culture conditions for 1-4 hours. Afterwards, the plates were shaken for 10 seconds and florescence was recorded at 560/590 nm using a Cytation 3 spectrophotometer. IC50 values were determined using non-linear regression analysis with GraphPad Prism 6.0 (GraphPad Software Inc.). […]

UBA5 [1] = target: T1, UBA5 (Homo sapiens, UniProt Q9GZZ9); assay: 19F NMR study of covalent modification of UBA5; type: binding; conditions: 100 μM compound, 100 μM UBA5, 2 hours at 37° C.
T1 construct: Constructs of full length human UBA5 (1-404) were cloned into a pET28b(+) vector; His-SUMO (N, cleaved yes); made in house; host or cells: E. coli BL21 (DE3) RILP
T1 sequence (Q9GZZ9 whole entry): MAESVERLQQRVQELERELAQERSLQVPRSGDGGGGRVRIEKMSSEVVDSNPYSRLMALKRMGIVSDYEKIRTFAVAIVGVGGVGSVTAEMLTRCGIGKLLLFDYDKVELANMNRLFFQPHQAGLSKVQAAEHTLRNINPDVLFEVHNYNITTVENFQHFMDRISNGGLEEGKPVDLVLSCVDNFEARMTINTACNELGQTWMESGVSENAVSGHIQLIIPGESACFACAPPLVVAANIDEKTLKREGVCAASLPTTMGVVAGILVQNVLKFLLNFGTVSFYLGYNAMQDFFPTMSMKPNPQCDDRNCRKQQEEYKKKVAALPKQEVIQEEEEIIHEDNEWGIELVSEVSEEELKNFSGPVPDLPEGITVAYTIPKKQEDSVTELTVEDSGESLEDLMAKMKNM
Method: Spectra were normalized and referenced according to the fluorine peak of 5-fluoro-Trp.
(§2) To assess potential reactivity of I-1 against Cys containing proteins, a series of ^19F NMR studies were conducted with BSA, lysozyme, STAT3, and STATS. […] All samples were prepared in 100 mM HEPES pH 7.4, and 100 μM 5-fluoro-Trp, with a final concentration of 10% D20 and 10% DMSO. The samples were incubated for 2 hours at 37° C. prior to data collection. All spectra were normalized and referenced according to the fluorine peak of 5-fluoro-Trp.
To evaluate covalent modification of UBA5 by I-1, ^19F NMR studies were conducted in accordance with the procedure described in Example 80.

D425 = assay: Cell viability, medulloblastoma D425; type: cell-based; conditions: medulloblastoma cell line
Method: as §1

UBA5 [2] = target: T1, UBA5; assay: MS study of UBA5 covalent adduct; type: binding; conditions: 100 μM I-1, 50 μM UBA5
Method: To further characterize covalent modification of UBA5 by I-1, samples were incubated as 100 μM I-1 and 50 μM UBA5 (50 mM HEPES, pH 7.4) at 30° C. for 2 hours, followed by storage overnight at 4° C. prior to submission for LC-MS analysis.

tubulin = assay: Tubulin polymerization assay; type: biochemical; conditions: 10 μM compound, optical density 340 nm
BSA, lysozyme, STAT3/5 = assay: 19F NMR screen against Cys-containing proteins; type: binding; conditions: 100 μM I-1, 2 hours at 37° C.
Method: as §2

UBA5 [3] = target: T1, UBA5; assay: Thermal shift assay of UBA5; type: binding; conditions: 50 μM I-1, 0.5 μM UBA5; without compound 46.43° C.
Method: SYPRO Orange protein gel stain (Sigma-Aldrich) was used to conduct thermal shift assays. This was done on a Bio-Rad C1000 Touch ThermoCycler with a CFX96 Real-Time optical unit. Final UBA5 protein concentrations of 0.5 μM were used in 50 mM HEPES, pH 7.4. UBA5 was pre-incubated with test compound I-1 for 4 hours at 30° C. Next, SYPRO orange was added to the samples for a final 5× (10 μM) concentration from the original 5000× stock. DMSO content was 5% (v/v). Heating was done in 0.5° C. increases with 30 seconds in between, from 10 to 75° C. Fluorescence intensity was measured at […] followed by excitation at […]. This emission intensity was graphed against temperature and then recorded as a first derivative curve. The temperature of the resultant curve minima provided the melting temperature (Tm) of the protein. Experiments were run in triplicates.

For `O=S(=O)(c1c(F)c(F)c(F)c(F)c1F)N(Cc1ccc(F)cc1)C1CC1` [Compound I-1, N-cyclopropyl-2,3,4,5,6-pentafluoro-N-(4-fluorobenzyl)benzenesulfonamide], the IC50 (PL-21) was 3.5 µM, the “covalent modification of UBA5 (free fluoride detection)” value (UBA5 [1]) was “Fluoride was released; also recorded: covalently modifies UBA5” and the IC50 (D425) was 800 nM. For the same compound, the “UBA5 covalent adduct formation by MS” value (UBA5 [2]) was “covalent adduct formation”, the “inhibition of tubulin polymerization” value (tubulin) was “Negligible inhibition; also recorded: no significant inhibitory action” and the “reactivity towards Cys-containing proteins (free fluoride release)” value (BSA, lysozyme, STAT3/5) was “no significant fluoride release; also recorded: unreactive”. The “melting temperature (Tm) of UBA5 with compound” value (UBA5 [3]) was 44.33 °C.
